Molecular target: Proto-oncogene tyrosine-protein kinase receptor Ret [V804M] (Human, UniProt P07949, V804M)
Assay: Kinase Activity Assay

Proto-oncogene tyrosine-protein kinase receptor Ret [V804M], sequence (P07949 29-1114 V804M limits assumed): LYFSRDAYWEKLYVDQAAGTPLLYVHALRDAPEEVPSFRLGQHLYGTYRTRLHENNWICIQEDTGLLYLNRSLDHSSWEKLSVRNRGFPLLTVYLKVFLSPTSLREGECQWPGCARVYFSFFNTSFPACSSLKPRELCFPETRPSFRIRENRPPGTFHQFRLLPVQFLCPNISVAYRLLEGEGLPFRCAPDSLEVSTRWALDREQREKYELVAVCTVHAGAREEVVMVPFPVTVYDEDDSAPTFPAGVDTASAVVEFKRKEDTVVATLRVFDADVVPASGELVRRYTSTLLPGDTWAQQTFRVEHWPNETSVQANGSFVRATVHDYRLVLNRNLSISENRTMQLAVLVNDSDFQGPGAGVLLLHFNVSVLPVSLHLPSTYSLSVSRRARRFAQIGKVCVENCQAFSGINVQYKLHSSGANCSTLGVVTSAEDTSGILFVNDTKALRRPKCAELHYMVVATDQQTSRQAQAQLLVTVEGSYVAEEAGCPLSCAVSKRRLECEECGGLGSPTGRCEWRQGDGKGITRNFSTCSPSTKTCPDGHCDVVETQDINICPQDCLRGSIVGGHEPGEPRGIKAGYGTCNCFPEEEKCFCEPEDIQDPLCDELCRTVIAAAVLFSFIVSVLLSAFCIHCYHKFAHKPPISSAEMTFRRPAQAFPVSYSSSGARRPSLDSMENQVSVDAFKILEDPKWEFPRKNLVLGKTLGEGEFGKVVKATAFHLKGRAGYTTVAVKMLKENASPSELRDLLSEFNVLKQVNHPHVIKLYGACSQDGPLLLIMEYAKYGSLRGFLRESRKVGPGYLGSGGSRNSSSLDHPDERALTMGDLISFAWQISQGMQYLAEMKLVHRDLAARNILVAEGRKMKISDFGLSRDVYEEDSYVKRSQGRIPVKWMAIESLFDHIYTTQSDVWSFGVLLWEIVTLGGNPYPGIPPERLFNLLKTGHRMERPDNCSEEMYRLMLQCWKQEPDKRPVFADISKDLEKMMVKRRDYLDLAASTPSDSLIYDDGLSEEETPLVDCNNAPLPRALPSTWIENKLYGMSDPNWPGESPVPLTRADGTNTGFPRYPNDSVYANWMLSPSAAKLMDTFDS

## COc1ccc(CN2C3CC2CN(c2ccc(-c4cc(OC[C@@H]5CNCCO5)cn5nc6[nH]ncc6c45)cn2)C3)cn1 [US12338253, Compound 17]
  IC50: 0.1 nM

— BindingDB's records for patent US12338253 (Applied Pharmaceutical Science, 2025)
